The text below walks through data of US9260425B2 (Genetech, Inc., priority 2011, dated 2016).

Read-outs that look alike come from different tables or passages of the source.

The subject of one assay is BaF3 parental cells. The assay can be described thus: In vitro cell proliferation potency assay, BaF3 parental line with IL-3 (Cell Titer Glo). It is filed as cell-based, murine. The conditions noted are these: Mus musculus, 2 ng/mL mIL-3, incubated overnight, read-out: Prolif. BaF3 IL3 (IC50). The protocol:
(§1) In Vitro Cell Proliferation Potency Assays
(§2) BaF3 parental line was obtained from the DSMZ repository. BaF3 lines transfected with PIM-1 or PIM-2 were generated. Mouse IL-3 was purchased from R&D Systems. G418 was purchased from Clontech. Media for BaF3 parental line contained RPMI, 10% FBS, 2 mM L-Glutamine, 2 ng/mL mIL-3. Media for BaF3 PIM1 & 2 lines contained RPMI, 10% FBS, 2 mM L-Glutamine, […]. Media for MM1.S (multiple myeloma cells) line contained RPMI, 10% FBS, 2 mM L-Glutamine.
(§3) BaF3, a murine interleukin-3 dependent pro-B cell line, parental cells, BaF3 PIM1 cells, BaF3 PIM-2 cells, and MM1.S (multiple myeloma) cells were seeded at 2 k/well, 5 k/well, 5 k/well, and 10 k/well respectively, in a 384-well plate, at 45 μL/well. Test compound was added at 5 μL/well. BaF3 cells (parental and transfected) were incubated overnight, while MM1.S cells were incubated for 72 hours at 37° C., 5% CO2. Cell Titer Glo Reagent (Promega) was added at 50 μL/well, the plates were incubated for 30 minutes, and their luminescence read on an HT Analyst. IC50/EC50 values for the test compound were calculated.

Assay [1] has as its system MM1.S (multiple myeloma) cells. The assay can be described thus: In vitro cell proliferation potency assay, MM1.S cells (Cell Titer Glo). It is filed as cell-based. The conditions noted are these: Homo sapiens, 72 hours, read-out: Prolif. MM1S ATP (EC50). The protocol: as §1, §2, §3
On the technique in general: In ATP-based viability assays light output follows the ATP content of the culture.

Another assay relates to BaF3 PIM1 cells. The assay is described as follows: In vitro cell proliferation potency assay, BaF3 line transfected with PIM-1 (Cell Titer Glo). The format is cell-based, murine. The conditions noted are these: incubated overnight, read-out: Prolif. BaF3 PIM-1 (IC50). The protocol:
as §1
BaF3 parental line was obtained from the DSMZ repository. […] Mouse IL-3 was purchased from R&D Systems. G418 was purchased from Clontech. Media for BaF3 parental line contained RPMI, 10% FBS, 2 mM L-Glutamine, 2 ng/mL mIL-3. Media for BaF3 PIM1 & 2 lines contained RPMI, 10% FBS, 2 mM L-Glutamine, […]. Media for MM1.S (multiple myeloma cells) line contained RPMI, 10% FBS, 2 mM L-Glutamine.
as §3

A further assay concerns the target Pim-1 (Homo sapiens (Human), UniProt P11309). The assay is described as follows: Pim kinase binding activity assay (Example 901), PIM-1 enzyme, Caliper microfluidic peptide phosphorylation. It is filed as biochemical. The conditions noted are these: 20 pM PIM-1, 10 μM ATP, 1 μM FAM-peptide, 90 minutes at room temperature. The procedure, abridged:
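The readout was microfluidic mobility-shift separation of a FAM-tagged Pim-specific peptide, excited at 488 nm and read at 530 nm, with Ki calculated from percent conversion. Reactions held 20 pM PIM-1, 1 μM peptide and 10 μM ATP in pH 7.2 HEPES/MgCl2/DTT buffer, ran 90 min at room temperature and were stopped with EDTA.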

Pim-1, sequence (P11309 whole entry): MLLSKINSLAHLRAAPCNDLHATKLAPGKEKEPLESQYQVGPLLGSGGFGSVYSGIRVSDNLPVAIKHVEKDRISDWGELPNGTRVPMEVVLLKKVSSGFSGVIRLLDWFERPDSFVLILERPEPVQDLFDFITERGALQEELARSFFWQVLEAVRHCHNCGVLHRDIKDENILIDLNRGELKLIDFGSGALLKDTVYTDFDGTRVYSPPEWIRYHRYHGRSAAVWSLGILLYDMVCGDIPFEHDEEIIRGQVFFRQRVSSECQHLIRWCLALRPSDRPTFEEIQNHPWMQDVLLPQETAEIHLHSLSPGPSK

A word on the IC50: it is the concentration that inhibits the measured activity by half. In general, EC50 refers to the concentration at which the effect is half-maximal. With `N[C@@H]1CCCN(c2cccc(-c3n[nH]c4cnc(-c5cncs5)cc34)n2)C1` [Example 350, (R)-1-(6-(5-(thiazol-5-yl)-1H-pyrazolo[3,4-c]pyridin-3-yl)pyridin-2-yl)piperidin-3-amine], the IC50 was 3600 nM in the assay with BaF3 parental cells and 188 nM in the assay on BaF3 PIM1 cells (Mus musculus). Also, the EC50 in assay [1] is 287 nM.
By Ki is commonly meant a dissociation constant, usually derived from enzyme kinetics or from competition with a known ligand. On to `C=Cc1ccc(-c2n[nH]c3cnc(-c4cccnc4)cc23)nc1N1CCC[C@H](N)C1` [Example 307, (S)-1-(6-(5-(pyridin-3-yl)-1H-pyrazolo[3,4-c]pyridin-3-yl)-3-vinylpyridin-2-yl)piperidin-3-amine], for which the concentration for half-maximal inhibition (IC50) worked out at 1400 nM in the assay with BaF3 parental cells and 67.1 nM in the assay with BaF3 PIM1 cells (Mus musculus). Also, the affinity at Pim-1 corresponds to a Ki of 0.014 nM. Also, the EC50 in assay [1] came to 141 nM.
For `N[C@@H]1CCCN(c2cccc(-c3n[nH]c4cnc(-c5cccnc5)cc34)n2)CC1` [Example 249, (R)-1-(6-(5-(pyridin-3-yl)-1H-pyrazolo[3,4-c]pyridin-3-yl)pyridin-2-yl)azepan-4-amine] the same measures were 2500 nM, 518 nM, 0.02 nM and 191 nM.
For `Cc1cncc(-c2cc3c(-c4cccc(N5CCNCC5)n4)n[nH]c3cn2)n1` [Example 505, 5-(6-methylpyrazin-2-yl)-3-(6-(piperazin-1-yl)pyridin-2-yl)-1H-pyrazolo[3,4-c]pyridine] the same measures were 2300 nM, 40.2 nM, 0.01 nM and 97.9 nM.
In the case of `Fc1ccccc1-c1n[nH]c2cnc(-c3cccnc3)cc12` [Example 117, 3-(2-fluorophenyl)-5-(pyridin-3-yl)-1H-pyrazolo[3,4-c]pyridine], the half-inhibitory concentration (IC50) with BaF3 parental cells amounted to 12900 nM; in the assay with BaF3 PIM1 cells (Mus musculus), 18800 nM.
For the molecule `Cn1cc(-c2cc3c(-c4ccccc4F)n[nH]c3cn2)cn1` [Example 129, 3-(2-fluorophenyl)-5-(1-methyl-1H-pyrazol-4-yl)-1H-pyrazolo[3,4-c]pyridine], the IC50 came to 5600 nM in the assay on BaF3 parental cells and 5200 nM with BaF3 PIM1 cells (Mus musculus). On Pim-1, this molecule returned a Ki of 7.85 nM.
Take `c1ccc(-c2n[nH]c3cnc(-c4cccnc4)cc23)cc1` [Example 116, 3-phenyl-5-(pyridin-3-yl)-1H-pyrazolo[3,4-c]pyridine]: the concentration for half-maximal inhibition (IC50) in the assay on BaF3 parental cells worked out at 13700 nM.
Regarding `Cn1cc(-c2cc3c(-c4cccc(N5CCC[C@H](N)C5)n4)n[nH]c3cn2)cn1` [Example 173, (S)-1-(6-(5-(1-methyl-1H-pyrazol-4-yl)-1H-pyrazolo[3,4-c]pyridin-3-yl)pyridin-2-yl)piperidin-3-amine], the half-inhibitory concentration (IC50) in the assay with BaF3 parental cells was found to be 5700 nM; in the assay on BaF3 PIM1 cells, 251 nM. The EC50 in assay [1] came out at 376 nM.
Take `N[C@H]1CCCN(c2cccc(-c3n[nH]c4cnc(-c5cccnc5)cc34)n2)CC1` [Example 248, (S)-1-(6-(5-(pyridin-3-yl)-1H-pyrazolo[3,4-c]pyridin-3-yl)pyridin-2-yl)azepan-4-amine]: the 50% inhibitory concentration (IC50) was found to be 1600 nM with BaF3 parental cells and 336 nM in the assay on BaF3 PIM1 cells (Mus musculus). At Pim-1, this molecule gave an inhibition constant (Ki) of 0.048 nM. In addition, in assay [1], the 50% effective concentration (EC50) worked out at 201 nM.
Taken in the same sequence, the figures for `N[C@H]1CCCN(c2cccc(-c3n[nH]c4cnc(-c5cccnc5)cc34)n2)C1` [Example 161, (S)-1-(6-(5-(pyridin-3-yl)-1H-pyrazolo[3,4-c]pyridin-3-yl)pyridin-2-yl)piperidin-3-amine] were 1400 nM, 731 nM, 0.0411 nM and 281 nM.
As for `CC(C)Cn1cc(-c2cc3c(-c4cccc(N5CCNCC5)n4)n[nH]c3cn2)cn1` [Example 381, 5-(1-isobutyl-1H-pyrazol-4-yl)-3-(6-(piperazin-1-yl)pyridin-2-yl)-1H-pyrazolo[3,4-c]pyridine], the IC50 in the assay on BaF3 parental cells worked out at 2200 nM; in the assay with BaF3 PIM1 cells (Mus musculus) it was 129 nM. For the same molecule, at Pim-1, the inhibition constant Ki was found to be 0.057 nM. The 50% effective concentration (EC50) in assay [1] came out at 228 nM.
On to `N[C@@H]1CCCN(c2cncc(-c3cc4c(-c5ccccc5F)n[nH]c4cn3)n2)C1` [Example 153, (R)-1-(6-(3-(2-fluorophenyl)-1H-pyrazolo[3,4-c]pyridin-5-yl)pyrazin-2-yl)piperidin-3-amine], for which the 50% inhibitory concentration (IC50) in the assay with BaF3 parental cells came out at 2500 nM; in the assay on BaF3 PIM1 cells (Mus musculus), 28 nM. Also, the EC50 in assay [1] was 436 nM.
Consider `NC[C@H]1CCN(c2cccc(-c3n[nH]c4cnc(-c5cccnc5)cc34)n2)C1` [Example 270, (R)-(1-(6-(5-(pyridin-3-yl)-1H-pyrazolo[3,4-c]pyridin-3-yl)pyridin-2-yl)pyrrolidin-3-yl)methanamine], for which the IC50 was found to be 13100 nM with BaF3 parental cells and 478 nM in the assay on BaF3 PIM1 cells (Mus musculus). Moreover, the EC50 in assay [1] was 707 nM.
For `N[C@H]1CCCN(c2cccc(-c3n[nH]c4cnc(-c5cncs5)cc34)n2)C1` [Example 349, (S)-1-(6-(5-(thiazol-5-yl)-1H-pyrazolo[3,4-c]pyridin-3-yl)pyridin-2-yl)piperidin-3-amine], the results for the concentration for half-maximal inhibition (IC50) with BaF3 parental cells and in the assay with BaF3 PIM1 cells (Mus musculus) were 3400 nM and 681 nM, respectively. The half-maximal effective concentration (EC50) in assay [1] came out at 393 nM.
Taken in the same sequence, the figures for `COCCn1cc(-c2cc3c(-c4cccc(N5CCNCC5)n4)n[nH]c3cn2)cn1` [Example 382, 5-(1-(2-methoxyethyl)-1H-pyrazol-4-yl)-3-(6-(piperazin-1-yl)pyridin-2-yl)-1H-pyrazolo[3,4-c]pyridine] were 17000 nM, 274 nM and 3200 nM.
Taken in the same sequence, the figures for `N[C@H]1CCCN(c2cncc(-c3cc4c(-c5ccccc5F)n[nH]c4cn3)n2)C1` [Example 152, (S)-1-(6-(3-(2-fluorophenyl)-1H-pyrazolo[3,4-c]pyridin-5-yl)pyrazin-2-yl)piperidin-3-amine] were 2700 nM, 47.1 nM and 631 nM.
`O=C1OCCN1c1cc2c(-c3cccc(N4CCCCC4)n3)n[nH]c2cn1` [Example 373, 3-(3-(6-(piperidin-1-yl)pyridin-2-yl)-1H-pyrazolo[3,4-c]pyridin-5-yl)oxazolidin-2-one]: the Ki at Pim-1 was 483 nM.
Still for that read-out and setting: in the case of `OC1CN(c2cccc(-c3n[nH]c4cnc(-c5cccnc5)cc34)n2)CCC1F` (stereo not drawn) [Example 435, 4-fluoro-1-(6-(5-(pyridin-3-yl)-1H-pyrazolo[3,4-c]pyridin-3-yl)pyridin-2-yl)piperidin-3-ol] it was 0.089 nM; in that of `CNc1cccc(-c2n[nH]c3cnc(-c4cccnc4)cc23)n1` [Example 437, N-methyl-6-(5-(pyridin-3-yl)-1H-pyrazolo[3,4-c]pyridin-3-yl)pyridin-2-amine], 0.409 nM; in that of `N[C@H]1CCCN(c2nc(-c3n[nH]c4cnc(-c5cccnc5)cc34)ccc2Br)C1` [Example 289, (S)-1-(3-bromo-6-(5-(pyridin-3-yl)-1H-pyrazolo[3,4-c]pyridin-3-yl)pyridin-2-yl)piperidin-3-amine], 0.017 nM.
On to `Cn1cc(-c2cc3c(-c4ccc(Br)c(N5CCC[C@@H](O)C5)n4)n[nH]c3cn2)cn1` [Example 394, (R)-1-(3-bromo-6-(5-(1-methyl-1H-pyrazol-4-yl)-1H-pyrazolo[3,4-c]pyridin-3-yl)pyridin-2-yl)piperidin-3-ol], for which affinity at Pim-1 was put at a Ki of 0.316 nM.
Same read-out and setting: in the case of `CCn1cc(-c2cc3c(-c4ccc(=O)n(CC5(C(N)=O)CCC5)c4)n[nH]c3cn2)cn1` [Example 475, 1-((5-(5-(1-ethyl-1H-pyrazol-4-yl)-1H-pyrazolo[3,4-c]pyridin-3-yl)-2-oxopyridin-1(2H)-yl)methyl) cyclobutanecarboxamidc] it was 4.49 nM; in that of `CCn1cc(-c2cc3c(-c4nc(N5CCC[C@H](N)C5)ccc4Cl)n[nH]c3cn2)cn1` [Example 466, (S)-1-(5-chloro-6-(5-(1-ethyl-1H-pyrazol-4-yl)-1H-pyrazolo[3,4-c]pyridin-3-yl)pyridin-2-yl)piperidin-3-amine], 0.389 nM.
On the same count and under the same terms, for `N[C@@H]1CCN(c2ccc(-c3n[nH]c4cnc(-c5cccnc5)cc34)cn2)C1` [Example 203, (R)-1-(5-(5-(pyridin-3-yl)-1H-pyrazolo[3,4-c]pyridin-3-yl)pyridin-2-yl)pyrrolidin-3-amine] the value was 1.02 nM; for `FC(F)(F)c1cccc(-c2n[nH]c3cnc(-c4cccnc4)cc23)c1` [Example 126, 5-(pyridin-3-yl)-3-(3-(trifluoromethyl)phenyl)-1H-pyrazolo[3,4-c]pyridine], 15.9 nM.
